This note sets out measurements from patent publication US20160058829A1, “ANTI-FIBROTIC PEPTIDES AND THEIR USE IN METHODS FOR TREATING DISEASES AND DISORDERS CHARACTERIZED BY FIBROSIS” (Thrasos Innovation, Inc., priority 2011, published 2016).

The test system of the assay is human proximal tubule epithelial cells (HK2). Kind of assay: D-glucose-induced EMT assay, E-cadherin immunofluorescence with colorimetric image analysis. Particulars: for Percent inhibition of D-glucose-induced EMT: 0% = D-glucose untreated, 100% = media without D-glucose. It counts as cell-based. The protocol: Chronic hyperglycemia is a known cause of renal fibrosis in type 2 diabetes. The assay in this example induces the transdifferentiation from the epithelial to the mesenchymal phenotype (EMT) in human proximal tubule epithelial cells (HK2) by exposing them to high levels of D-glucose (100 mM and 200 mM). […] Exposure to 100 mM D-glucose results in the loss of E-cadherine expression as evidenced by the loss of the fluorescene signal. Using this assay test compounds are evaluated based on their ability to inhibit the EMT processes in the presence of high levels of D-glucose. FIGS. 4-16 are fluorescence micrographs of HK2 cells exposed to 100 mM D-glucose and 100 uM of SEQ IS NOs 1 through 11, respectively. Note that all but SEQ ID NOs 10 and 11 were able to preserve the epithelial phenotype (i.e., inhibit the EMT).
Results are provided in the context of FIG. 1 and Table 3, below. In Table 3 below, compound response is scored using image analysis as described herein in the method of Methods and Materials, part C. A 0% response corresponds to the signal for 100 mM (or 200 mM) D-glucose (untreated) while the 100% response corresponds to the signal for media in the absence of D-glucose.
It has been shown that transdifferentiation of proximal tubular epithelial cells is a critical step in the development of renal fibrosis, and that this is associated with a loss of the epithelial phenotypic marker, E-cadherin expression. This provides the basis for the development of a cell-based screening assay in which high concentrations of D-Glucose (50-100 mM) are used to induce a loss of E-cadherin expression in human renal proximal tubular epithelial (HK-2) cells, and compounds are tested for their ability to reverse the loss E-cadherin expression.
Materials: • Human proximal tubular epithelial cells, HK-2 (ATCC #CRL-2190) • Serum-free keratinocyte medium (GIBCO #17005-042, K-SFM) • Epidermal growth factor (EGF: 5 ng/mL) • Bovine pituitary extract (BPE: 40 ug/mL) • Primary antibody, Mouse IgG anti-E-cadherin (R&D Systems # MAB1838) • BSA [Sigma #A7030] • secondary antibody, FITC-conjugated Goat anti-mouse IgG (Fab2) fragment (Sigma-Aldrich # F-2653) • Paraformaldehyde (10%)) • Triton X-100 (Sigma # T-9284) • PBS (Fisher Scientific #BP399-1) • D-PBS (Invitrogen #14190-144) • Polypropylene tips (Axygen, Inc. 0.5-10 uL, cat # T-300-L-R; 1-200 uL, Cat # T-200-L-R; 1-1000 uL, Cat # T-1000-C-L-R) • 50 mL polypropylene culture tubes (Fisher Scientific, cat #06-443-18) • 24-well Coster cell culture plates (Fisher Scientific #07-200-84)
Reagents & Test Samples: • Positive control: BMP-7, assayed at concentrations 0.1 and 1 ug/mL • Test compounds (peptides): each tested at final concentrations 100 uM and 200 uM.
Assay Procedure for Cell Culture Assay: • Run assay in 24-well culture plates. • Seed HK-2 cells at a density between 25,000 and 30,000 cells per well in lmL K-SFM medium with supplements added (growth medium) • Incubate HK-2 cells for 24 hours at 37° C., and let cells attach the plate • Next Day afternoon, change the medium with K-SFM medium with no added supplements (serum free medium) in all wells except the first two control wells. • Continue incubating HK-2 cells overnight at 37° C. • Next Day, aspirate the medium from all wells. Incubate the cells in growth medium (first two control wells) or expose them to test compounds for 2 hours at 37° C. Final concentrations of each Test compound are 100 and 200 uM. BMP-7 serves as a positive control in the assay. • After incubation, add D-glucose to all wells except first two control wells. Final concentrations of D-Glucose are 50 and 100 mM. • Incubate HK-2 cells for 60 hours at 37° C. • Aspirate the medium from all wells. To the wells, add pre-warmed growth medium or serum free medium containing D-glucose alone or D-glucose and test compound or D-glucose and BMP-7. Final concentrations of D-Glucose and Test compound are the same as above. • Continue incubating HK-2 cells for 24 hours at 37° C. […]

Positions of bridges follow the written chain, without caps; N, C: chain ends. Non-standard residues stand in square brackets, D forms with d. *: point of attachment. Dap = NC[C@H](N)C(=O)O; For = O=C*

For “1 (H-CYFDDSSNVLCKKYRS-OH; disulfide 1-11; SMILES CC(C)C[C@@H]1NC(=O)[C@H](C(C)C)NC(=O)[C@H](CC(N)=O)NC(=O)[C@H](CO)NC(=O)[C@H](CO)NC(=O)[C@H](CC(=O)O)NC(=O)[C@H](CC(=O)O)NC(=O)[C@H](Cc2ccccc2)NC(=O)[C@H](Cc2ccc(O)cc2)NC(=O)[C@@H](N)CSSC[C@@H](C(=O)N[C@@H](CCCCN)C(=O)N[C@@H](CCCCN)C(=O)N[C@@H](Cc2ccc(O)cc2)C(=O)N[C@@H](CCCNC(=N)N)C(=O)N[C@@H](CO)C(=O)O)NC1=O) [compound 1]”, the “Percent inhibition of D-glucose-induced EMT” value (from here on “Percent inhibition”) runs as follows: (100 uM peptide) 125%; (200 uM peptide) 98%.
As to “(H)-CYFNDSSQVLCKRYRS-(OH) (H-CYFNDSSQVLCKRYRS-OH; disulfide 1-11; SMILES CC(C)C[C@@H]1NC(=O)[C@H](C(C)C)NC(=O)[C@H](CCC(N)=O)NC(=O)[C@H](CO)NC(=O)[C@H](CO)NC(=O)[C@H](CC(=O)O)NC(=O)[C@H](CC(N)=O)NC(=O)[C@H](Cc2ccccc2)NC(=O)[C@H](Cc2ccc(O)cc2)NC(=O)[C@@H](N)CSSC[C@@H](C(=O)N[C@@H](CCCCN)C(=O)N[C@@H](CCCNC(=N)N)C(=O)N[C@@H](Cc2ccc(O)cc2)C(=O)N[C@@H](CCCNC(=N)N)C(=O)N[C@@H](CO)C(=O)O)NC1=O) [SEQ ID NO: 10]”, the “preservation of the epithelial phenotype (inhibition of EMT), anti-fibrotic effect” value (HK2 cells, high D-glucose) is recorded as “very weak anti-fibrotic effect”.
Regarding “4 (H-CYYDNSSSVLCKRYRS-OH; disulfide 1-11; not fully specified (residue 14)) [compound 4]”, the “Percent inhibition” value is, setting by setting: (100 uM peptide) 99%; (200 uM peptide) 130%.
“5 (H-CYYDNSSSVLCKRYRS-OH; disulfide 1-11; SMILES CC(C)C[C@@H]1NC(=O)[C@H](C(C)C)NC(=O)[C@H](CO)NC(=O)[C@H](CO)NC(=O)[C@H](CO)NC(=O)[C@H](CC(N)=O)NC(=O)[C@H](CC(=O)O)NC(=O)[C@H](Cc2ccc(O)cc2)NC(=O)[C@H](Cc2ccc(O)cc2)NC(=O)[C@@H](N)CSSC[C@@H](C(=O)N[C@@H](CCCCN)C(=O)N[C@@H](CCCNC(=N)N)C(=O)N[C@@H](Cc2ccc(O)cc2)C(=O)N[C@@H](CCCNC(=N)N)C(=O)N[C@@H](CO)C(=O)O)NC1=O) [compound 5]”: the “Percent inhibition” value by setting is: (100 uM peptide) 33%; (200 uM peptide) 84%.
As for “9 (H-[Dap]YYDNSSSVLDKRYRS-OH; SMILES CC(C)C[C@H](NC(=O)[C@@H](NC(=O)[C@H](CO)NC(=O)[C@H](CO)NC(=O)[C@H](CO)NC(=O)[C@H](CC(N)=O)NC(=O)[C@H](CC(=O)O)NC(=O)[C@H](Cc1ccc(O)cc1)NC(=O)[C@H](Cc1ccc(O)cc1)NC(=O)[C@@H](N)CN)C(C)C)C(=O)N[C@@H](CC(=O)O)C(=O)N[C@@H](CCCCN)C(=O)N[C@@H](CCCNC(=N)N)C(=O)N[C@@H](Cc1ccc(O)cc1)C(=O)N[C@@H](CCCNC(=N)N)C(=O)N[C@@H](CO)C(=O)O) [compound 9]”, the “Percent inhibition” value by setting is: (100 uM peptide) 83%; (200 uM peptide) 125%.
On the same counts, the results for “2 (H-DYFDDSSNVL[Dap]KKYRS-OH; SMILES CC(C)C[C@H](NC(=O)[C@@H](NC(=O)[C@H](CC(N)=O)NC(=O)[C@H](CO)NC(=O)[C@H](CO)NC(=O)[C@H](CC(=O)O)NC(=O)[C@H](CC(=O)O)NC(=O)[C@H](Cc1ccccc1)NC(=O)[C@H](Cc1ccc(O)cc1)NC(=O)[C@@H](N)CC(=O)O)C(C)C)C(=O)N[C@@H](CN)C(=O)N[C@@H](CCCCN)C(=O)N[C@@H](CCCCN)C(=O)N[C@@H](Cc1ccc(O)cc1)C(=O)N[C@@H](CCCNC(=N)N)C(=O)N[C@@H](CO)C(=O)O) [compound 2]” are 167% and 96%.
Regarding “11 (H-CYYDDSSSVLCKKYRS-OH; disulfide 1-11; SMILES CC(C)C[C@@H]1NC(=O)[C@H](C(C)C)NC(=O)[C@H](CO)NC(=O)[C@H](CO)NC(=O)[C@H](CO)NC(=O)[C@H](CC(=O)O)NC(=O)[C@H](CC(=O)O)NC(=O)[C@H](Cc2ccc(O)cc2)NC(=O)[C@H](Cc2ccc(O)cc2)NC(=O)[C@@H](N)CSSC[C@@H](C(=O)N[C@@H](CCCCN)C(=O)N[C@@H](CCCCN)C(=O)N[C@@H](Cc2ccc(O)cc2)C(=O)N[C@@H](CCCNC(=N)N)C(=O)N[C@@H](CO)C(=O)O)NC1=O) [compound 11]”, the “Percent inhibition” value (200 uM peptide) is reported as −13%.
Consider “6 (For-CYYDNSSSVLCKRYRS-OH; disulfide 1-11; SMILES CC(C)C[C@@H]1NC(=O)[C@H](C(C)C)NC(=O)[C@H](CO)NC(=O)[C@H](CO)NC(=O)[C@H](CO)NC(=O)[C@H](CC(N)=O)NC(=O)[C@H](CC(=O)O)NC(=O)[C@H](Cc2ccc(O)cc2)NC(=O)[C@H](Cc2ccc(O)cc2)NC(=O)[C@@H](NC=O)CSSC[C@@H](C(=O)N[C@@H](CCCCN)C(=O)N[C@@H](CCCNC(=N)N)C(=O)N[C@@H](Cc2ccc(O)cc2)C(=O)N[C@@H](CCCNC(=N)N)C(=O)N[C@@H](CO)C(=O)O)NC1=O) [compound 6]”, for which the “Percent inhibition” value is listed as 88% (100 uM peptide) and 109% (200 uM peptide).
In the case of “8 (H-CYYDNSSSVLCKKYRS-OH; disulfide 1-11; SMILES CC(C)C[C@@H]1NC(=O)[C@H](C(C)C)NC(=O)[C@H](CO)NC(=O)[C@H](CO)NC(=O)[C@H](CO)NC(=O)[C@H](CC(N)=O)NC(=O)[C@H](CC(=O)O)NC(=O)[C@H](Cc2ccc(O)cc2)NC(=O)[C@H](Cc2ccc(O)cc2)NC(=O)[C@@H](N)CSSC[C@@H](C(=O)N[C@@H](CCCCN)C(=O)N[C@@H](CCCCN)C(=O)N[C@@H](Cc2ccc(O)cc2)C(=O)N[C@@H](CCCNC(=N)N)C(=O)N[C@@H](CO)C(=O)O)NC1=O) [compound 8]”, the “Percent inhibition” value by setting is: (100 uM peptide) 155%; (200 uM peptide) 104%.
Regarding “10 (H-CYFNDSSQVLCKRYRS-OH; disulfide 1-11; SMILES CC(C)C[C@@H]1NC(=O)[C@H](C(C)C)NC(=O)[C@H](CCC(N)=O)NC(=O)[C@H](CO)NC(=O)[C@H](CO)NC(=O)[C@H](CC(=O)O)NC(=O)[C@H](CC(N)=O)NC(=O)[C@H](Cc2ccccc2)NC(=O)[C@H](Cc2ccc(O)cc2)NC(=O)[C@@H](N)CSSC[C@@H](C(=O)N[C@@H](CCCCN)C(=O)N[C@@H](CCCNC(=N)N)C(=O)N[C@@H](Cc2ccc(O)cc2)C(=O)N[C@@H](CCCNC(=N)N)C(=O)N[C@@H](CO)C(=O)O)NC1=O) [compound 10]”, the “Percent inhibition” value by setting is: (100 uM peptide) 20%; (200 uM peptide) 17%.
On the same counts, the results for “7 (Ac-CYYDNSSSVLCKRYRS-OH; disulfide 1-11; SMILES CC(=O)N[C@H]1CSSC[C@@H](C(=O)N[C@@H](CCCCN)C(=O)N[C@@H](CCCNC(=N)N)C(=O)N[C@@H](Cc2ccc(O)cc2)C(=O)N[C@@H](CCCNC(=N)N)C(=O)N[C@@H](CO)C(=O)O)NC(=O)[C@H](CC(C)C)NC(=O)[C@H](C(C)C)NC(=O)[C@H](CO)NC(=O)[C@H](CO)NC(=O)[C@H](CO)NC(=O)[C@H](CC(N)=O)NC(=O)[C@H](CC(=O)O)NC(=O)[C@H](Cc2ccc(O)cc2)NC(=O)[C@H](Cc2ccc(O)cc2)NC1=O) [compound 7]” are 65% and 103%.
